This note sets out measurements from patent publication US11925611B2, “Use of ZT-1A and analogs thereof to prevent and/or treat neurodegenerative and neurocognitive disorders” (United States Government as Represented by the Department …, priority 2021, dated 2024).

The test system of assay [1] is BCAS mice. The experiment in a line: Morris water maze (MWM) test in modified BCAS mice. Format: in vivo, C57BL/6J mice. The text has this:
(§1) Clinically, most patients with intracranial atherosclerotic stenosis suffer from permanent stenosis without occlusion. Therefore, to mimic clinical atherosclerotic stenosis with permanent carotid artery (CCA) hypoperfusion, a modified BCAS model was adapted by ligating the CCA guided with a 30 gauge needle (0.31 mm diameter) in the right CCA and a 33 gauge needle (0.21 mm diameter) in the left CCA with a 4-0 silk suture. […] Next, changes of total NKCC1 (tNKCC1) protein expression were surveyed in different brain regions at 2 and 4 wks post-surgery by immunofluorescence staining (IF). […] Therefore, in the rest of the study, the investigation was focused on its association to white matter GFAP^+ astrogliosis and lesion of CC and external capsul (EC) tracks. […] However, by 2 wks post-BCAS surgery, tNKCC1 immunofluorescence intensity in the CC tracks was increased by ˜3 folds (p<0.05), and further elevated to ˜6 folds by 4 wks (p<0.05, arrowhead). Data are mean±SEM, n=4, *p<0.05, **p<0.01. […] The upregulation of tNKCC1 and GFAP protein expression in the CC is correlated, with a Pearson's correlation coefficient of r=0.9 (p<0.001). […] In contrast, no elevated tNKCC1 protein was detected either in Iba1^+ microglia/macrophages or in Olig2+ oligodendrocytes (OL) at 4 wks post-BCAS surgery (FIG. 1D). Without wishing to be bound by theory, these findings indicate that upregulation of NKCC1 expression and activity in reactive astrocytes may play a critical role in white matter inflammation, OL death, and demyelination after BCAS. Next, whether administration of SPAK inhibitor ZT-1a reduces WML and improves cognitive functions was examined. Starting at 14 days after BCAS surgery in mice (male), either vehicle DMSO (Veh, 2 ml/kg) or ZT-1a (5 mg/kg, every 72 h, i.p) was administered every 3 days, until they were sacrificed at day 35 post-BCAS (FIG. 3A). […] Motor functions are similar in all groups and average swimming speeds were not different in the Sham-, Veh- and ZT-1a-treated mice. Data are mean±SEM, n=6 (Sham and ZT-1a) or 5 (Veh), *p<0.01 vs. sham, *p<0.05 vs. Veh.

Assay [2] deals with BCAS mice. Kind of assay: Immunostaining of brains of BCAS mice (MBP, APC, NG2, caspase 3/Olig2, GFAP, tNKCC1). Format: in vivo, C57BL/6J mice.
Excerpt: as §1, with “Veh. After completion of the neurological function tests in the Veh-control and ZT-1a-treated BCAS cohort mice (as shown in FIG. 3A and FIG. 3B), ex-vivo brains were harvested for MRI DTI (diffusion tensor imaging) analysis of WML at 4 wks post-BCAS detected by DTI. The fractional anisotropy (FA), radial diffusivity (RD), and mean diffusivity (MD) of the CC and EC tracks were analyzed. Representative images of the DEC maps in FIG. 4A show severe loss of axonal fibers (arrowheads) in the CC and left EC of the Veh-control brains. […] These observations are consistent with changes of FA, RD, and MD values (FIG. 4B). […] Then MBP expression levels were measured in these brains by immunostaining. […] Taken together, these findings illustrated that post-BCAS administration of SPAK inhibitor ZT-1a reduces BCAS-induced white matter demyelination. […] To test this, immunostaining of the same cohort of brains (of FIG. 4A-D) was conducted to analyze oligodendrocyte precursor cell (OPC) counts (NG2^+), differentiated mature OLs (APC^+), and apoptotic OLs (caspase 3^+Olig2^+) in the Sham, Veh-, and ZT-1a-treated BCAS mice. […] Referring to FIG. 5A and FIG. 5B, representative double immunofluorescence images of APC (mature oligodendrocyte marker)/NG2 (oligodendrocyte precursor cell marker) in CC (FIG. 5A) and EC (FIG. 5B) of Sham, Veh-, and ZT-1a-treated brains at 4-wk after BCAS surgery. Nuclei were counterstained with DAPI. Quantitative analyses of APC^+/DAPI^+ cells and NG2^+/DAPI^+ cells is shown. Data are mean±SEM, n=4, *p<0.05, […]. Referring to FIG. 5C, representative double immunofluorescence images of Caspase 3^+/Olig2^+ cells in CC of Sham, Veh-, and ZT-1a-treated brains. Data are mean±SEM, n=4, *p<0.05. Without wishing to be bound by theory, it is speculated that ZT-1a treatment preserves white matter integrity via reducing reactive astrocyte-mediated inflammation in white matter tracks. […]” for “Veh.”

Setting [3] is: 4 wks post-BCAS, vs Veh-controls.

Turning to `Cc1cc(C(C#N)c2ccc(Cl)cc2)c(Cl)cc1NC(=O)c1cc(Cl)ccc1O` (stereo not drawn) [1a (ZT-1a)], in the assay on BCAS mice [1] (5 mg/kg i.p. every 72 h from day 14 after BCAS, 4 wks post-BCAS, vs Veh-treated BCAS mice), the “escape latency in MWM test” value is listed as “significantly less escape latency”. In addition, the “time in the target quadrant, spatial probe trial” value in the assay with BCAS mice [1] (5 mg/kg i.p. every 72 h from day 14 after BCAS, mean±SEM, n=6, Veh 15.3±1.2 sec, p<0.05) is 26.3 ± 4.3 s. In the assay with BCAS mice [1] (Sham-, Veh- and ZT-1a-treated mice compared), the average swimming speeds entry is recorded as “not different”. In the assay on BCAS mice [2] (4 weeks after BCAS, n=4), the “decrease in GFAP expression in CC” value is recorded as approximately 50% and the “decrease in tNKCC1 expression in CC” value is on record as approximately 60%. Besides, in the assay with BCAS mice [2] (setting [3]), the “APC+ cell counts (mature OLs) in the CC and EC tracts” value is “significantly higher”; the “NG2+ cell counts (OPC) in the CC and EC tracts” value was “significantly higher”; the “caspase 3+ OLs cell counts in CC” value is recorded as “less”. Also, the “MBP protein expression in the CC and EC tracks” value in the assay on BCAS mice [2] (4 wks post-BCAS, vs Veh-treated BCAS brains, p<0.05) was “less MBP loss”.
